Test results reported in PMC3942006, “Ruthenium-Nitrosyl Complexes with Glycine, L-Alanine, L-Valine, L-Proline, D-Proline, L-Serine, L-Threonine, and L-Tyrosine: Synthesis, X-ray Diffraction Structures, Spectroscopic and Electrochemical Properties, and Antiproliferative Activity” (Inorganic Chemistry, 2014).

What was measured:
[1] = system: CH1 cells (human ovarian carcinoma); experiment: MTT assay, antiproliferative activity in CH1 cells; type: cell-based; details: for more active than the respective osmium analogue: CH1 cells; for IC50: MTT assay, exposure time 96 h, means ± SD
Source text: (§1) CH1 cells (human ovarian carcinoma) were a generous gift from Lloyd R. Kelland, CRC Centre for Cancer Therapeutics, Institute of Cancer Research, Sutton, UK. SW480 (human adenocarcinoma of the colon) and A549 (human nonsmall cell lung cancer) cells were kindly provided by Brigitte Marian (Institute of Cancer Research, Department of Medicine I, Medical University of Vienna, Austria). All cell culture media and reagents were purchased from Sigma-Aldrich Austria and plastic ware from Starlab Germany. Cells were grown in 75 cm^2 culture flasks as adherent monolayer cultures in minimum essential medium (MEM) supplemented with 10% heat-inactivated fetal calf serum, 1 mM sodium pyruvate, 4 mM L-glutamine, and 1% nonessential amino acids (from 100× ready-to-use stock). Cultures were maintained at 310 K in humidified atmosphere containing 95% air and 5% CO2.
(§2) Cytotoxic effects of the test compounds were determined by means of a colorimetric microculture assay [MTT assay; MTT = 3-(4,5-dimethyl-2-thiazolyl)-2,5-diphenyl-2H-tetrazolium bromide] as described previously.[13] Cells were harvested from culture flasks by trypsinization and seeded by using a pipetting system (Biotek Precision XS Microplate Sample Processor) in densities of 1 × 10^3 (CH1), 2 × 10^3 (SW480), and 3 × 10^3 (A549) in 100 μL/well aliquots in 96-well microculture plates. For 24 h, cells were allowed to settle and resume proliferation. […] After 96 h of drug exposure, the medium was replaced with 100 μL/well of a 1:7 MTT/RPMI 1640 mixture (MTT solution, 5 mg/mL of MTT reagent in phosphate-buffered saline; RPMI 1640 medium, supplemented with 10% heat-inactivated fetal bovine serum and 4 mM L-glutamine), and plates were incubated for further 4 h at 310 K. Subsequently, the solution was removed from all wells, and the formazan crystals formed by viable cells were dissolved in 150 μL of DMSO per well. Optical densities at 550 nm were measured with a microplate reader (Biotek ELx808) by using a reference wavelength of 690 nm to correct for unspecific absorption. The quantity of viable cells was expressed relative to untreated controls, and 50% inhibitory concentrations (IC50) were calculated from concentration-effect curves by interpolation. Evaluation is based on means from three independent experiments.

[2] = system: SW480 (human adenocarcinoma of the colon) cells; experiment: MTT assay, antiproliferative activity in SW480 cells; type: cell-based; details: for more active than the respective osmium analogue: SW480 cells; for IC50: MTT assay, exposure time 96 h, means ± SD
Source text: as §1, §2

[3] = log D7.4 by shake-flask method, n-octanol/buffered aqueous solution; type: physicochemical; details: for log D7.4: n-octanol/0.02 M HEPES pH 7.4, T = 298.0 K; for log D7.4 in the presence of 0.1 M KCl: n-octanol/0.02 M HEPES pH 7.4, 0.1 M KCl, T = 298.0 K
Procedure: ^1H NMR spectra were recorded on a Bruker Avance III instrument (Ultrashiled Magnet) at 500.13 MHz at room temperature. DMSO-d6 was used as a solvent. Standard pulse programs were applied. ^1H chemical shifts were measured relative to the residual solvent peaks. […] Complex concentration was 1.0 mM. Watergate water suppression program and 4,4-dimethyl-4-silapentane-1-sulfonic acid (DSS) internal standard were used. ATR-IR spectra were measured on a Bruker Vertex spectrometer. D7.4 values were determined by the traditional shake-flask method in n-octanol/buffered aqueous solution at pH 7.4 (N-(2-hydroxyethyl)piperazine-N′-ethanesulfonic acid (HEPES) buffer) and 298.0 ± 0.2 K, as described previously.[25] In the case of the complexes of L-Ala (2) and L-Val (3) the D7.4 values were determined in the presence of 0.1 M KCl as well. Two parallel experiments were performed for each sample. The complexes were dissolved at 0.3 mM in the n-octanol presaturated aqueous solution of the buffer (0.02 M). The aqueous solutions and n-octanol with 1:1 phase ratio were gently mixed with 360° vertical rotation for 3 h to avoid emulsion formation, and the mixtures were centrifuged at 5000 rpm for 3 min by a temperature-controlled centrifuge at 298 K. After separation, UV spectra of the complexes in the aqueous phase were compared to those of the original aqueous solutions, and D7.4 values were calculated as the mean of [absorbance (original solution)/absorbance (aqueous phase after separation) – 1] obtained in the region of λ ≈ (250–290 nm). Circular dichroism (CD) and UV–vis spectra under physiological conditions (0.02 M phosphate buffer, pH 7.40 with 0.1 M KCl) were recorded on a Jasco J-815 spectrometer in an optical cell of 2 cm path length (l) in the wavelength range from 220 to 600 nm. The analytical concentration for the CD measurement of the complexes was 400 μM in aqueous solution. CD data are given as the differences in molar absorptivities between left and right circularly polarized light, based on the concentration of the […] (Δε = ΔA/l/ccomplex). The concentrations for the UV–vis measurements amounted to 403 (1), 401 (4), 401 (5), 400 (8), 399 (3), 401 (2), 403 (7), and 401 (6) μM.
The log D7.4 values of the complexes were determined by the traditional shake-flask method in n-octanol/buffered aqueous solution at pH 7.4 by analysis of the UV–vis spectra of the aqueous phases before and after separation (Supporting Information, Figure S10 and Table 5).

[4] = system: A549 (human nonsmall cell lung cancer) cells; experiment: MTT assay, antiproliferative activity in A549 cells; type: cell-based; details: exposure time 96 h, means ± SD
Source text: as §1, §2

[5] = Co-incubation with sodium ascorbate followed by ESI mass spectrometry; type: physicochemical; details: 4 equiv sodium ascorbate (200 μM), 310 K, over 24 h
Procedure: (§3) The stability of four compounds, namely 1, 4, 5, and 8, in aqueous solution and in the presence of 4 equiv of sodium ascorbate was investigated using an AmaZon SL ESI ion trap mass spectrometer (Bruker Daltonics GmbH, Bremen, Germany). For this purpose, the compounds were diluted from 400 μM stock solution (1% DMSO) to 50 μM in water and in the presence of 200 μM sodium ascorbate. The solutions were incubated at 310 K in the dark, and samples were measured after 0.5, 1, 2, 6, and 24 h after a second dilution step to 5 μM of the metal compound. The samples were introduced by direct infusion into the mass spectrometer at 280 μL/h, and mass spectra were recorded over 0.5 min and averaged. Typical experimental conditions were as follows: high voltage (HV) capillary ±4.5 kV, dry temp 180 °C, nebulizer 8 psi, dry gas 6 L/min, radio frequency (RF) level 77%, trap drive 57.6, average accumulation time 25 ms (negative ion mode) and 120 μs (positive ion mode). […]
(§4) The aqueous stability of compounds 1, 4, 5, and 8 was also confirmed by ESI mass spectrometry. […] Dissolution of 1 in D2O leads to the change of the labile −NH2 to −ND2, and the resulting compound [RuCl3(N,N-d2-Gly−H)(NO)] ^– (m/z 314.74 compared to m/z 312.72 of 1) was analyzed. […] Note that related ruthenium-nitrosyl complexes with azole heterocycles reacted quantitatively with sodium ascorbate within several hours.[15]

[6] = Stability in aqueous solution by UV-vis spectroscopy; type: physicochemical; details: pH 7.40, 0.02 M HEPES, 0.25 mM, 298.0 K, in the presence of 0.1 M KCl or in its absence
[7] = Aqueous stability by ESI mass spectrometry; type: physicochemical; details: 50 μM in water, 310 K, over 24 h
Procedure: as §3, §4

[8] = Hydrolytic stability by 1H NMR spectroscopy; type: physicochemical; details: 10% D2O/H2O, pH = 5.86, compared with pH 7.4 buffer
Procedure: ^1H NMR spectra were recorded on a Bruker Avance III instrument (Ultrashiled Magnet) at 500.13 MHz at room temperature. DMSO-d6 was used as a solvent. Standard pulse programs were applied. ^1H chemical shifts were measured relative to the residual solvent peaks. […] Complex concentration was 1.0 mM. Watergate water suppression program and 4,4-dimethyl-4-silapentane-1-sulfonic acid (DSS) internal standard were used. ATR-IR spectra were measured on a Bruker Vertex spectrometer. D7.4 values were determined by the traditional shake-flask method in n-octanol/buffered aqueous solution at pH 7.4 (N-(2-hydroxyethyl)piperazine-N′-ethanesulfonic acid (HEPES) buffer) and 298.0 ± 0.2 K, as described previously.[25] In the case of the complexes of L-Ala (2) and L-Val (3) the D7.4 values were determined in the presence of 0.1 M KCl as well. […] The aqueous solutions and n-octanol with 1:1 phase ratio were gently mixed with 360° vertical rotation for 3 h to avoid emulsion formation, and the mixtures were centrifuged at 5000 rpm for 3 min by a temperature-controlled centrifuge at 298 K. After separation, UV spectra of the complexes in the aqueous phase were compared to those of the original aqueous solutions, and D7.4 values were calculated as the mean of [absorbance (original solution)/absorbance (aqueous phase after separation) – 1] obtained in the region of λ ≈ (250–290 nm). […]

Question: With (nBu4N)[RuCl3(D-Pro–H)(NO)] [complex 5] as the compound, how does the “more active than the respective osmium analogue” value [1] read?
Answer: 11 fold

Question: What about the “more active than the respective osmium analogue” value [2] of the same compound?
Answer: 14 fold

Question: For (nBu4N)[RuCl3(L-Pro–H)(NO)] [complex 4], which “more active than the respective osmium analogue” value [1] is on record?
Answer: 5.7 fold

Question: And the “more active than the respective osmium analogue” value [2]?
Answer: 4.4 fold

Question: With `CCCC[N+](CCCC)(CCCC)CCCC.O=[N][Ru-2]1([Cl])([Cl])([Cl])[NH2+][C@@H](CO)C(=O)[O]1` [complex 6, (nBu4N)[RuCl3(L-Ser–H)(NO)]] as the compound, how does the IC50 [1] read?
Answer: 13 ± 2 µM

Question: What about the IC50 [2] of the same compound?
Answer: 63 ± 10 µM

Question: And the “log D7.4” value [3]?
Answer: –1.77 ± 0.12

Question: What about the IC50 [4] of the same compound?
Answer: > 320 µM

Question: For `CCCC[N+](CCCC)(CCCC)CCCC.O=[N][Ru-2]1([Cl])([Cl])([Cl])[NH2+][C@@H](Cc2ccc(O)cc2)C(=O)[O]1` [complex 8, (nBu4N)[RuCl3(L-Tyr–H)(NO)]], which “ligand release on incubation with sodium ascorbate” value [5] is on record?
Answer: did not induce ligand release

Question: And the “hydrolysis over 24 h (absorbance at 250 nm)” value [6]?
Answer: negligible

Question: What about the IC50 [1] of the same compound?
Answer: 17 ± 3 µM

Question: What about the “aqueous stability, species in negative ion mode ESI mass spectra” value [7] of the same compound?
Answer: [RuCl3(AA–H)NO]^− as the major species

Question: What about the IC50 [2] of the same compound?
Answer: 38 ± 12 µM

Question: What about the “hydrolytic stability: 1H NMR in nonbuffered medium” value [8] of the same compound?
Answer: showed the same NMR spectra

Question: And the IC50 [4]?
Answer: > 320 µM

Question: With `CCCC[N+](CCCC)(CCCC)CCCC.C[C@@H](O)[C@@H]1[NH2+][Ru-2]([Cl])([Cl])([Cl])([N]=O)[O]C1=O` [complex 7, (nBu4N)[RuCl3(L-Thr–H)(NO)]] as the compound, how does the IC50 [1] read?
Answer: 23 ± 2 µM

Question: And the IC50 [2]?
Answer: 71 ± 15 µM

Question: And the “log D7.4” value [3]?
Answer: –1.75 ± 0.02

Question: And the IC50 [4]?
Answer: > 320 µM

Question: What does the source list for `CCCC[N+](CCCC)(CCCC)CCCC.C[C@@H]1[NH2+][Ru-2]([Cl])([Cl])([Cl])([N]=O)[O]C1=O` [complex 2, (nBu4N)[RuCl3(L-Ala–H)(NO)]]?
Answer: IC50 [1]: 12 ± 2 µM; IC50 [2]: 47 ± 3 µM; log D7.4 in the presence of 0.1 M KCl [3]: –1.47 ± 0.11; log D7.4 [3]: –1.63 ± 0.08; IC50 [4]: > 320 µM

Question: Which IC50 [1] does the source give for (nBu4N)[RuCl3(L-Val–H)(NO)] [complex 3] here?
Answer: 27 ± 3 µM

Question: And the IC50 [2]?
Answer: 53 ± 2 µM

Question: What about the “log D7.4 in the presence of 0.1 M KCl” value [3] of the same compound?
Answer: –1.31 ± 0.07

Question: And the “log D7.4” value [3]?
Answer: –1.13 ± 0.02

Question: What about the IC50 [4] of the same compound?
Answer: > 320 µM
